The values below come from patent US8927559B2, “Quinazolinone-type compounds as CRTH2 antagonists” (Merck Sharp & Dohme Corp., priority 2010, dated 2015).

Where “and” joins values, the source holds several entries; their conditions need not be identical. Equal values may be shown once.

The experiment addresses T1, CRTH2 receptor (hCRTH2) (Homo sapiens, UniProt Q9Y5Y4).
T1 construct: expressed in transfected cells; host or cells: HEK cells (HEK-hCRTH2 cell line), membranes
T1 sequence (Q9Y5Y4 1-395): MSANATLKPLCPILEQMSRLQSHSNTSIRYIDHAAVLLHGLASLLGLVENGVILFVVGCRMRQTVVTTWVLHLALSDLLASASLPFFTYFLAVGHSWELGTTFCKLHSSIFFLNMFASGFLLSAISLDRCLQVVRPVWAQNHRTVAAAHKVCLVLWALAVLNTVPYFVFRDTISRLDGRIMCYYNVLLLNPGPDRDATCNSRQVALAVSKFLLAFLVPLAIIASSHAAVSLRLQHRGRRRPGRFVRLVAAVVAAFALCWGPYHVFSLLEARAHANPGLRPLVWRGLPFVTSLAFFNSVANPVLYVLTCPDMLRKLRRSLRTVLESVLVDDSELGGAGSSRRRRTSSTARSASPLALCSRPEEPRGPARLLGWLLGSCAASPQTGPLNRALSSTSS
Nature of the experiment: Radioligand binding assay ([3H]PGD2 competition, membranes of HEK-hCRTH2 cell line). Conditions: 3.0 nM [3H]PGD2, HEK-hCRTH2 membranes, 60 min, room temperature; read-out: Ki. As for the experimental part:
Competing ligands were diluted in dimethylsulfoxide (Me2SO) that was kept constant at 1% (v/v) of the final incubation volume. The reaction was initiated by the addition of 8-20 μg of membrane protein prepared from a HEK-hCRTH2 cell line. Total and non-specific binding were determined in the absence and the presence of […] PGD2, respectively. […] The reaction was routinely conducted for 60 min at room temperature and terminated by rapid filtration through prewetted (0.3% polyethyleneimine) 96-well printed filtermate (Wallac) using a Tomtec harvester. After washing with cold buffer, the filter was dried for 2 minutes in microwave, and Meltilex Scintillator sheet (Wallac) was melted on for 2 min.
What is called Ki is a dissociation constant, usually derived from enzyme kinetics or from competition with a known ligand. For the molecule `O=C(O)CCCCc1nc2cc(-c3nc(Cc4ccc(F)cc4)no3)ccc2c(=O)n1-c1ccc(F)cc1` [Example 22C], the Ki fell in the range of 10 to 50 nM.

Regarding `COc1ccccc1S(=O)(=O)NCc1cc(-c2ccc3c(=O)n(-c4ccc(F)cc4)c(CCCCC(=O)O)nc3c2)no1` [Example 24, 5-(3-(4-fluorophenyl)-7-(5-((2-methoxyphenylsulfonamido)methyl)isoxazol-3-yl)-4-oxo-3,4-dihydroquinazolin-2-yl)pentanoic acid], the Ki is no more than 10 nM. As for `O=C(O)CCCCc1nc2cc(-c3cc(CNC(=O)c4ccccc4)on3)ccc2c(=O)n1-c1ccc(F)cc1` [Example 24F], the figure is no more than 10 nM; as for `Cc1ccc(S(=O)(=O)NCc2cc(-c3ccc4c(=O)n(-c5ccc(F)cc5)c(CCCCC(=O)O)nc4c3)no2)cc1` [Example 24G], no more than 10 nM; as for `O=C(O)CCCCc1nc2cc(-c3cc(CNS(=O)(=O)c4ccc(F)cc4)on3)ccc2c(=O)n1-c1ccc(F)cc1` [Example 24H], no more than 10 nM. The result for `O=C(O)CCCCc1nc2cc(-c3cc(CNS(=O)(=O)Cc4ccccc4)on3)ccc2c(=O)n1-c1ccc(F)cc1` [Example 24J] reads no more than 10 nM; that for `CC(C)(C)c1ccc(S(=O)(=O)NCc2cc(-c3ccc4c(=O)n(-c5ccc(F)cc5)c(CCCCC(=O)O)nc4c3)no2)cc1` [Example 24L], 10 to 50 nM.

On to `O=C(O)CCCCc1nc2cc(-c3cc(CNS(=O)(=O)c4ccc(-c5ccccc5)cc4)on3)ccc2c(=O)n1-c1ccc(F)cc1` [Example 24M], for which the Ki was 10 to 50 nM and 40.5 nM. Take `O=C(O)CCCCc1nc2cc(-c3cc(CNS(=O)(=O)c4cc(F)cc(F)c4)on3)ccc2c(=O)n1-c1ccc(F)cc1` [Example 24N]: the Ki is no more than 10 nM. On to `O=C(O)CCCCc1nc2cc(-c3cc(CNS(=O)(=O)c4ccc(F)c(F)c4)on3)ccc2c(=O)n1-c1ccc(F)cc1` [Example 24P], for which the inhibition constant (Ki) was no more than 10 nM. On to `CC(C)(C)OC(=O)NCc1cc(-c2ccc3c(=O)n(-c4ccc(F)cc4)c(CCCCC(=O)O)nc3c2)no1` [Example 24Q], for which the Ki is no more than 10 nM. As to `O=C(O)CCCCc1nc2cc(-c3cc(CNC(=O)c4ccc(F)cc4)on3)ccc2c(=O)n1-c1ccc(F)cc1` [Example 24R], the Ki was 10 to 50 nM. The result for `O=C(O)CCCCc1nc2cc(-c3cc(CNS(=O)(=O)c4ccc(OC(F)(F)F)cc4)on3)ccc2c(=O)n1-c1ccc(F)cc1` [Example 24i] reads no more than 10 nM; that for `O=C(O)CCCCc1nc2cc(-c3cc(CNS(=O)(=O)c4ccc(Cl)cc4)on3)ccc2c(=O)n1-c1ccc(F)cc1` [Example 24o], no more than 10 nM; that for `O=C(O)CCCCc1nc2cc(-c3cc(Cc4ccc(F)cc4)on3)ccc2c(=O)n1-c1ccc(F)cc1` [Example 25, 5-(7-(5-(4-fluorobenzyl)isoxazol-3-yl)-3-(4-fluorophenyl)-4-oxo-3,4-dihydroquinazolin-2-yl)pentanoic acid], ≤ 10 nM and 1 nM. As for `O=C(O)CCCCc1nc2cc(-c3cc([C@H](O)c4ccc(F)cc4)on3)ccc2c(=O)n1-c1ccc(F)cc1` [Example 25C], the figure is no more than 10 nM. Regarding `O=C(O)CCCCc1nc2cc(-c3cc([C@@H](O)c4ccc(F)cc4)on3)ccc2c(=O)n1-c1ccccc1` [Example 25D], the Ki was no more than 10 nM. For the molecule `O=C(O)CCCCc1nc2cc(-c3cc([C@H](O)c4ccc(F)cc4)on3)ccc2c(=O)n1-c1ccccc1` [Example 25E], the Ki was no more than 10 nM. Regarding `O=C(O)CCCCc1nc2cc(-c3cc(Cc4ccc(F)cc4)on3)ccc2c(=O)n1-c1ccccc1` [Example 25F], the Ki was no more than 10 nM. In the case of `O=C(O)CCCCc1nc2cc(-c3cc(C(O)c4ccc5ccccc5n4)on3)ccc2c(=O)n1-c1ccc(F)cc1` (stereo not shown) [Example 25G], the Ki is no more than 10 nM. Take `O=C(O)CCCCc1nc2cc(-c3cc(C(O)c4ccc5ccccc5n4)on3)ccc2c(=O)n1-c1ccc(F)cc1` (stereo not shown) [Example 25H]: the Ki was 10 to 50 nM.

Regarding `O=C(O)CCCCc1nc2cc(-c3cc(Cc4ccc5ccccc5c4)on3)ccc2c(=O)n1-c1ccc(F)cc1` [Example 25J], the Ki is no more than 10 nM.
